Source: ChEMBL document CHEMBL1201862, “PubChem BioAssay data set” (2004)
Active and inactive are the calls of the source.

How the values were obtained:
[1] = target: FAD-linked sulfhydryl oxidase ALR (Homo sapiens, UniProt P55789); experiment: inhibitors of human ALR sulfhydryl oxidase, dose response, biochemical, H2O2 detection, luminescence, cherry-pick (AID 493248)
[2] = target: T1, RNA-binding protein pos-1 (Caenorhabditis elegans, UniProt G5EF15); experiment: inhibitors of POS-1/mex-3 RNA binding, dose response, biochemical, fluorescence polarization (AID 1964);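 also: purified POS-1 fused to maltose binding protein made in E. coli; potency of compounds blocking POS-1 binding to fluorescent RNA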
T1 sequence (G5EF15 whole entry): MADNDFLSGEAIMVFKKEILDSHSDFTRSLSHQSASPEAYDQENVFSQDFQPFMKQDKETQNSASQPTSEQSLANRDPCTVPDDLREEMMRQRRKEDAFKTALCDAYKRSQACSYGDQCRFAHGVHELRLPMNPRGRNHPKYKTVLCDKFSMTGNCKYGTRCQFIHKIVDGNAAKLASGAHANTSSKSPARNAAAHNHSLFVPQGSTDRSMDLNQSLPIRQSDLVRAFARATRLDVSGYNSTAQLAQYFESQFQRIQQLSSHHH

[3] = target: T2, Zinc finger protein mex-5 (Caenorhabditis elegans, UniProt Q9XUB2); experiment: MEX-5/TCR-2 RNA interaction inhibitors, dose response, biochemical, C. elegans, fluorescence polarization (AID 1960)
T2 sequence (Q9XUB2 whole entry): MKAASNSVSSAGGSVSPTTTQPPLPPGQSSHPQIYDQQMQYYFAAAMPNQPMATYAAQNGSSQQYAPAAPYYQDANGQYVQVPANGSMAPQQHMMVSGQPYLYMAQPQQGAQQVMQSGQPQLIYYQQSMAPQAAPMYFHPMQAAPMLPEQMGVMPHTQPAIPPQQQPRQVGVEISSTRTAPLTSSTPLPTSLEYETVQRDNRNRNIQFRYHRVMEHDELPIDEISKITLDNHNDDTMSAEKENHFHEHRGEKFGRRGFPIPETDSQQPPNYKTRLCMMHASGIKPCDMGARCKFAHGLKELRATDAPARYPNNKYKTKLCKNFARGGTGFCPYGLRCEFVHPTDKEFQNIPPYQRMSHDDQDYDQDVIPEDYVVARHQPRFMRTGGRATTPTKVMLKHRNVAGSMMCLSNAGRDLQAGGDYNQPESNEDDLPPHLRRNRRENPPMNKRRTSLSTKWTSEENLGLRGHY

Large T antigen = Large T antigen (Simian virus 40, UniProt P03070); type: functional, Betapolyomavirus macacae;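 also: Confirmatory-stage PubChem screen for compounds that inhibit SV40 T antigen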
[4] = target: Glucose-6-phosphate 1-dehydrogenase (Homo sapiens, UniProt P11413); experiment: human G6PD enzyme inhibitors, dose response, selectivity assay for P. falciparum G6PD inhibitor project, biochemical, fluorescence (AID 504792); type: functional
Protein Wnt-3a = Protein Wnt-3a (Mus musculus, UniProt P27467); experiment: Wnt3a-driven reporter signaling inhibition, dose response, selectivity assay for Gli-SUFU antagonist project, Wnt-LIGHT cells, luminescence (AID 651570); type: functional; conditions: read-out: IC50_Mean;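 also: Wnt-LIGHT reporter cells stimulated with conditioned medium from Wnt3a-producing cells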
[5] = intracellular Trypanosoma cruzi inhibitors in host cells – cell-based, plate reader, cherry-pick samples, set 3, dose response (AID 651818); type: functional;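 also: compounds incubated with infected cells for about four days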
[6] = A cytotoxicity screen of small molecule inhibitors of the PhoP region in Salmonella typhi identified in the primary screen. [Related pubchem assays: 1850, 1864, 1985 ]; type: functional
[7] = target: T3, Polyadenylate-binding protein 1 (Homo sapiens, UniProt P11940); experiment: PABP1 MLLE–PAM2 binding inhibitor potency, dose response, biochemical, fluorescence polarization, FITC-PAM2 peptide (AID 602259); type: functional; conditions: read-out: IC50_Mean
[8] = target: T3, Polyadenylate-binding protein 1; experiment: PABP1 MLLE–PAM2 interaction inhibitors, dose response, miRNA deadenylation inhibitor project, biochemical, fluorescence polarization, Cy5-PAM2 peptide, secondary (AID 602260); type: functional; conditions: read-out: IC50_Mean
[9] = P. falciparum 3D7-ScDHODH growth inhibitors, dose response, SYBR Green, dry powder samples (AID 1159570); type: functional, cell-based;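 also: parasite growth measured after 72 hours of compound exposure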
[10] = P. falciparum ATP4 D1247Y mutant growth inhibitors, dose response, NITD609-resistant line, SYBR Green, dry powder (AID 1159571); type: functional, cell-based;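 also: parasites synchronized at ring stage by sorbitol before testing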
[11] = P. falciparum Dd2 growth inhibitors, dose response, SYBR Green, cherry-picked samples (AID 1159567); type: functional, cell-based
[12] = P. falciparum Dd2 growth inhibitors, dose response, SYBR Green, dry powder samples (AID 1159566); type: functional, cell-based;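 also: potency for growth inhibition with lower SYBR green DNA signal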
[13] = target: T4, Long-chain-fatty-acid--AMP ligase FadD28 (Mycobacterium tuberculosis, UniProt P9WQ59); experiment: Fluorescence polarization aasay to screen for inhibitors that compete for the binding of FadD28 to a bisubstrate Measured in Biochemical System Using Plate Reader - 2147-01_Inhibitor_Dose_CherryPick_Activity.; type: functional, Mycobacterium tuberculosis H37Rv
T4 sequence (P9WQ59 whole entry): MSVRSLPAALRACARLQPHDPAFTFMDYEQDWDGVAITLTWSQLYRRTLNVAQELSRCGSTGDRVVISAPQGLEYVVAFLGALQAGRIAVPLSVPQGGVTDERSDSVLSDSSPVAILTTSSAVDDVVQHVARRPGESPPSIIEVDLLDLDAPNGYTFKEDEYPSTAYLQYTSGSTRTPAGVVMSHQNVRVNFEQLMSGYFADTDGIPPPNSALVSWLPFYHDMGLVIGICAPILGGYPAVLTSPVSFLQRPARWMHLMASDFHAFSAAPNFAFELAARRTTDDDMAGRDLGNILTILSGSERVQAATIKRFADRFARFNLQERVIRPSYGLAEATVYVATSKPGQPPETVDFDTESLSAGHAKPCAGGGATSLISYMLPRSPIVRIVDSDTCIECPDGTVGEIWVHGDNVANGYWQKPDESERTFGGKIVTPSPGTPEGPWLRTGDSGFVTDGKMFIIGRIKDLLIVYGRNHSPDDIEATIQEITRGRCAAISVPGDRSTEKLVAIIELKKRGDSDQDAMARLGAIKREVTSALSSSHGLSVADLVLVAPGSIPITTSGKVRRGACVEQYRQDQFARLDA

[14] = target: Ras and Rab interactor 1/Tyrosine-protein kinase ABL1 (Homo sapiens, UniProt P00519+Q13671); type: functional;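 also: biochemical TR-FRET dose-response test measuring inhibition of binding between Rin1 and Abl proteins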
[15] = A Cell Based Secondary Assay To Explore Cytotoxicity of Compounds that Sensitize Mycobacterium Tuberculosis to Beta-Lactam Antibiotics.; type: functional
SN12K1 = experiment: cells; type: functional
P388/ADR = experiment: cells; type: functional
P388 = experiment: cells; type: functional
[16] = Luminescence Cell-Based Dose Retest to Confirm Inhibitors of Cancer Stem Cells. [Related pubchem assays (depositor defined):AID2717, AID2721]; type: functional; conditions: Homo sapiens
Genome polyprotein = Genome polyprotein (dengue virus type 2, UniProt P29990); experiment: Dengue-2 NS5 methyltransferase inhibitors, primary screen, biochemical, confirmation dose response (AID 588689); type: functional
Nonstructural protein 1 = Nonstructural protein 1 (Influenza A virus, UniProt Q194T2); type: functional, Influenza A virus (A/California/07/2009(H1N1))
[17] = CEM21 lymphoblast cell cytotoxicity, dose response, cytotoxicity control for viral fusion inhibitor project, CellTiter-Glo luminescence, cherry-picked (AID 652042); type: functional, cell-based;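 also: potency for signal decrease meaning cytotoxicity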
[18] = inhibitors of clade B AD8 Env fusion, dose response, cell-based, cherry-pick (AID 652062); type: functional;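 also: luciferase signal from cell-cell fusion driven by HIV-1 clade B AD8 Env; potency is for inhibitors of fusion seen as a drop in luminescence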
[19] = off-target signal loss in HeLa-CEM21 co-culture – HeLa F-luc CTL cells, cherry-picked, counter-screen for HIV-1 Env fusion inhibitor project, dose response (AID 652040); type: functional, cell-based;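 also: potency for signal decrease marking cytotoxic or nonspecific inhibition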
[20] = ZM109 Env clade C HIV-1 fusion inhibitors, dose response, HeLa effector, CEM target cells, luciferase, cherry-pick (AID 652058); type: functional, cell-based
[21] = inhibitors of HIV Env-driven cell fusion, dose response, cherry-pick (AID 652057); type: functional, cell-based

Sequence of Ras and Rab interactor 1/Tyrosine-protein kinase ABL1 (P00519 whole entry): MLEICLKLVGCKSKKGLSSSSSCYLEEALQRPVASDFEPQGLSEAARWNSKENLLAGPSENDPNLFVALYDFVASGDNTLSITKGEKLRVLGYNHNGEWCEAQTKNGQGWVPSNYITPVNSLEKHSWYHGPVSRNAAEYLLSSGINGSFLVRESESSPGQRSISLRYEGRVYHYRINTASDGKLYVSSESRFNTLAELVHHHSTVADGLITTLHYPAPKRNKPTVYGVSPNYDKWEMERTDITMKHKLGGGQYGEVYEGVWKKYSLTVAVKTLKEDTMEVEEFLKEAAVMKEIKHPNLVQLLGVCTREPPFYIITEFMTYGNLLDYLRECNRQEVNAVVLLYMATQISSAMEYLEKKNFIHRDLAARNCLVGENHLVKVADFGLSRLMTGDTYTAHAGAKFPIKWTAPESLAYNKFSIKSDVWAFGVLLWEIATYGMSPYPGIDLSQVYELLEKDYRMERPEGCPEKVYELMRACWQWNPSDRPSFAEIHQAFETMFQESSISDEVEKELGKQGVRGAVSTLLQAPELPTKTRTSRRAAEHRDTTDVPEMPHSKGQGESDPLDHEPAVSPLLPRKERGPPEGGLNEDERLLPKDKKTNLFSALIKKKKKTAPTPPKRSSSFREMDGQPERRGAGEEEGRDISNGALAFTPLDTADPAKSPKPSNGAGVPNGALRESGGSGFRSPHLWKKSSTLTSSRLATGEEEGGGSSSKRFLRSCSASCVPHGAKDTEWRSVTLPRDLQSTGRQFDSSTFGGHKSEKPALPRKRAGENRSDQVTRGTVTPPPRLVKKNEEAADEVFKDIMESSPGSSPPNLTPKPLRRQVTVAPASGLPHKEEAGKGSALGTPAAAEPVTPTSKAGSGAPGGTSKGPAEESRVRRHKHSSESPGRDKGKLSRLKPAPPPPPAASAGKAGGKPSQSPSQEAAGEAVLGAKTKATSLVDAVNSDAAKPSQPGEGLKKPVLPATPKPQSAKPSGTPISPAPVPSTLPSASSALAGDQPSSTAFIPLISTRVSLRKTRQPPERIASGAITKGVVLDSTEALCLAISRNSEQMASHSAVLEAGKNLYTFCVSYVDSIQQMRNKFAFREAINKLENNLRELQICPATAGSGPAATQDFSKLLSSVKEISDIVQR
Sequence of Ras and Rab interactor 1/Tyrosine-protein kinase ABL1 (Q13671 whole entry): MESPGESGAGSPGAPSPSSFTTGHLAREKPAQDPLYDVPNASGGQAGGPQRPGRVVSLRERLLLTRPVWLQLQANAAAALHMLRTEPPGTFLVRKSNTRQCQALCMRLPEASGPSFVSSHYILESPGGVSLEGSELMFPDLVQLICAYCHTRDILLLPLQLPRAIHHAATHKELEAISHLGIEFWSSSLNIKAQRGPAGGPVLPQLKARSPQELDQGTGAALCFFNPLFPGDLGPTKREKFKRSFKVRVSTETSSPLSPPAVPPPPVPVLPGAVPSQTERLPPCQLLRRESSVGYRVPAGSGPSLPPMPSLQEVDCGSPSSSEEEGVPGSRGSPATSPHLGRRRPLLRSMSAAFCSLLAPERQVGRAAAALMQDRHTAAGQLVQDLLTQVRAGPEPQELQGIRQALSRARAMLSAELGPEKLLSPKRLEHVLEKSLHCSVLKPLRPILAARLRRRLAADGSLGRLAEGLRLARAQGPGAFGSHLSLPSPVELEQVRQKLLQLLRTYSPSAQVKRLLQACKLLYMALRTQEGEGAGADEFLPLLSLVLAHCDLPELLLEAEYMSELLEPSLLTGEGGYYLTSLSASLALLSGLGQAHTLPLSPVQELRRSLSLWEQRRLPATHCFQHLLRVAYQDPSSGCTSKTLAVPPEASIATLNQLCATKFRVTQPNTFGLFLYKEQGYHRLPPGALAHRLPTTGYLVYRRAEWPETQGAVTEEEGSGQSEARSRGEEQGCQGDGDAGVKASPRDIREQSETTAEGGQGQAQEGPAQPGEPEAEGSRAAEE
Sequence of Protein Wnt-3a (P27467 whole entry): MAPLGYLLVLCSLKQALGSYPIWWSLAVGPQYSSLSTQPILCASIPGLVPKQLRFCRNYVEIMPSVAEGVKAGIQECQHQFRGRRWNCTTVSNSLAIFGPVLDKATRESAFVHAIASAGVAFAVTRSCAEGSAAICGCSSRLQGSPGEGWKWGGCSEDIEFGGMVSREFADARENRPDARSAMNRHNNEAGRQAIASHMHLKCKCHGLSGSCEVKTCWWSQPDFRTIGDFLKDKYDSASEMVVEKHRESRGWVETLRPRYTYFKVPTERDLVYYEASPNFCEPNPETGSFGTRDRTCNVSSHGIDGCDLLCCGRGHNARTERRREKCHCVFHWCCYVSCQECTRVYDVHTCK
T3 sequence (P11940 whole entry): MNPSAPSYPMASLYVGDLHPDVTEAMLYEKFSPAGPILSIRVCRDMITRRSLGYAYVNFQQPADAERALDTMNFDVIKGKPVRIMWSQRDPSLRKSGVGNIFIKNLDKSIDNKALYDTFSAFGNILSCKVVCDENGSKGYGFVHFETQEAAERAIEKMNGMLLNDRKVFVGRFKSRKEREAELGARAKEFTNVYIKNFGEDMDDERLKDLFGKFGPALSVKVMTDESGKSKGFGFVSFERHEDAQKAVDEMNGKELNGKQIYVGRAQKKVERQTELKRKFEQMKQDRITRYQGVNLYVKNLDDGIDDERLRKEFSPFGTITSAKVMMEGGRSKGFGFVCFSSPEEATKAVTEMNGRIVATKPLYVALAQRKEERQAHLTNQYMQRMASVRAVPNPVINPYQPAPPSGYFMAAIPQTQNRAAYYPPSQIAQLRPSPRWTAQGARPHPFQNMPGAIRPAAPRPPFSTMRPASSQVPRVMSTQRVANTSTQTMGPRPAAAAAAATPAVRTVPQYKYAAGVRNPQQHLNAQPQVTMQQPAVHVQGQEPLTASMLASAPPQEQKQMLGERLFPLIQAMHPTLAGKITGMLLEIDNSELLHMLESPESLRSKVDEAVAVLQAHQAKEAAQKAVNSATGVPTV
Sequence of Glucose-6-phosphate 1-dehydrogenase (P11413 whole entry): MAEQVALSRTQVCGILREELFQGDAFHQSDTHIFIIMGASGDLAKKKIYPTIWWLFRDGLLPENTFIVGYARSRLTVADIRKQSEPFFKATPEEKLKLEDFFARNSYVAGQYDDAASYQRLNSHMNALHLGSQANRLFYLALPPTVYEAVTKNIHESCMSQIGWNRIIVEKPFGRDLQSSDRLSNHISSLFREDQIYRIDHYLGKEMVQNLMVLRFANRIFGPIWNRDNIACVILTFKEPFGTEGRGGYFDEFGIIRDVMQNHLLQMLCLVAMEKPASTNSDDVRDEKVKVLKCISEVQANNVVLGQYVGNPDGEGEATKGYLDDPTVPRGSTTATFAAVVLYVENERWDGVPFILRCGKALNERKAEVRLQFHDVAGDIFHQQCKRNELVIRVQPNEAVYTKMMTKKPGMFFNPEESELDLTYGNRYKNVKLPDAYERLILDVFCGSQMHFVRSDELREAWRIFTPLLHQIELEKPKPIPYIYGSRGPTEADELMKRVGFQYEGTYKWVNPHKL
Sequence of FAD-linked sulfhydryl oxidase ALR (P55789 whole entry, the tested form may be a part): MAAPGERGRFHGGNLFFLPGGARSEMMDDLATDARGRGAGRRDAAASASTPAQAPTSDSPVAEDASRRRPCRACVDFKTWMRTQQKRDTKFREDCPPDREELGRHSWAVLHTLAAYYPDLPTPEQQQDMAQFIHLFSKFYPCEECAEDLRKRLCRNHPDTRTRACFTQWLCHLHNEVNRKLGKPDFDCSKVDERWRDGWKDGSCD
Sequence of Nonstructural protein 1 (Q194T2 whole entry, the tested form may be a part): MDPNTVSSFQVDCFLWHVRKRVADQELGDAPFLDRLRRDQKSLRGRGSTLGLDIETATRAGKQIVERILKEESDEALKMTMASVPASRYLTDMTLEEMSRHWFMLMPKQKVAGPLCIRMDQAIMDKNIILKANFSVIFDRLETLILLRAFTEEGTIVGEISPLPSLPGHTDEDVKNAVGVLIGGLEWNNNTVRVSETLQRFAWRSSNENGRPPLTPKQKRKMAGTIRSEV
Sequence of Genome polyprotein (P29990 2492-3391 limits assumed): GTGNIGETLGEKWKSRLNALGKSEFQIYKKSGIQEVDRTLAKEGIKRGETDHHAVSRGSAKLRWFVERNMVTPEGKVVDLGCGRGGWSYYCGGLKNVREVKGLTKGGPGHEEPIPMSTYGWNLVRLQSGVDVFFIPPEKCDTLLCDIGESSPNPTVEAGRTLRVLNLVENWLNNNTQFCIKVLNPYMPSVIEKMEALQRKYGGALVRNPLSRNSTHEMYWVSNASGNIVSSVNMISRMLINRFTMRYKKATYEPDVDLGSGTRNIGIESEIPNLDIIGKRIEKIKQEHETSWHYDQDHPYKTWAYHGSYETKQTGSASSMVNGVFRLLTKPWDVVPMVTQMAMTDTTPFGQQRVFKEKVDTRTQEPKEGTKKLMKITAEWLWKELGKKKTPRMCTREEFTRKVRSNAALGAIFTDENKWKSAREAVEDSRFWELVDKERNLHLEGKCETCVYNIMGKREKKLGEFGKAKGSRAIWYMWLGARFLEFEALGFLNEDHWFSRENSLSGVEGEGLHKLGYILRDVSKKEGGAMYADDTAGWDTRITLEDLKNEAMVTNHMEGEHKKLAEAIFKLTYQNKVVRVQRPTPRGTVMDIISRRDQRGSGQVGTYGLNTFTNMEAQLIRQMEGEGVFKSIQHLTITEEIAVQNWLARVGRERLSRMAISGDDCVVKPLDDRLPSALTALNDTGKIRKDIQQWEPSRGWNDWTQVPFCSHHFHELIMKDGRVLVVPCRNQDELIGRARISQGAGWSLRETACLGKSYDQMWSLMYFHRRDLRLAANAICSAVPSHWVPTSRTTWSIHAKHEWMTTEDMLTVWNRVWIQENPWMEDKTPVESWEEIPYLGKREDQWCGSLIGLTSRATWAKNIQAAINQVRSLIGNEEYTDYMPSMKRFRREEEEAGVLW

SMILES: CCCN1CCc2cccc3c2[C@H]1Cc1ccc(O)c(O)c1-3
- AC50 [1]: 0.009 µM (active)
- EC50 [2]: 5.56 µM (active)
- EC50 [3]: 3.12 µM (active)
- IC50 (Large T antigen): 29.7 µM (active)
- IC50 [4]: > 80 µM (inactive)

SMILES: Cc1ccc(NCC(=O)Nc2cccc(S(=O)(=O)N(C)C)c2)cc1S(=O)(=O)N1CCCCCC1
- IC50 (Protein Wnt-3a): 8.18 µM (active)

SMILES: C[C@H](CO)N1C[C@H](C)[C@H](CN(C)Cc2ccc(-c3ccccc3)cc2)Oc2c(NC(=O)NC3CCCCC3)cccc2C1=O
- AC50 [5]: 3.38 µM (active)

SMILES: Nc1c(-c2ccccc2)sc2ccc3ccccc3[n+]12
- EC50 [6]: > 50 µM (active)
- IC50 [7]: > 66 µM (inactive)
- IC50 [8]: > 66 µM (inactive)

SMILES: CC(C)(C)[S+]([O-])N1Cc2cc(C(=O)NCc3ccc(Oc4ccccc4)cc3)nc(-c3cccc(-c4cccc(F)c4)c3)c2[C@@H]1CCO (some centres not stated)
- AC50 [9]: 0.831 µM (active)
- AC50 [10]: 0.417 µM (active)
- AC50 [11]: 1.23 µM (active)
- AC50 [12]: 0.658 µM (active)

SMILES: Cc1cccc(NC(=O)Cn2c(=O)oc3cc(S(=O)(=O)N4CCCC4)ccc32)n1
- AC50 [13]: 34.8 µM (active)

SMILES: CCN(CC)C(=O)c1ccc(NC(=O)c2cc(S(=O)(=O)N3CCCCCC3)ccc2OC)cc1
- IC50 [14]: 0.618 µM (active)

SMILES: Cc1ccnc(NC(=O)CCC(=O)N(CC(=O)NC2CCCCC2)C2CCCC2)c1
- EC50 [6]: > 50 µM (active)

SMILES: C=CCc1cc(Cl)ccc1OCCCNC(C)CC (configuration not stated)
- CC50 [15]: > 40 µM (active)

SMILES: O=P1(Oc2ccc(Cl)cc2Cl)Oc2ccc3ccccc3c2-c2c(ccc3ccccc23)O1
- GI50 (SN12K1; Homo sapiens, SN12K1): 20.7 µM (inactive)
- GI50 (P388/ADR; Mus musculus, P388/ADR): 51.4 µM (inactive)
- GI50 (P388; Mus musculus, P388): 33.3 µM (inactive)

SMILES: O=C1NN(c2cccc(Br)c2)C(=O)/C1=C\c1ccccc1
- AC50 [16]: 3.04 µM (active)
- AC50 [13]: > 100 µM (inactive)
- IC50 (Genome polyprotein): 35.1 µM (active)

SMILES: COc1ccc2[nH]c3c(C)c4cc[n+](C)cc4c(C)c3c2c1
- GI50 (SN12K1): 0.287 µM (active)
- GI50 (P388/ADR): 47.4 µM (inactive)
- GI50 (P388): 0.796 µM (active)

SMILES: O=C(NN1C(=O)/C(=C/c2nc3ccccc3[nH]2)SC1=S)c1ccccc1
- AC50 [13]: 70.5 µM (active)
- IC50 (Nonstructural protein 1): > 100 µM (active)

SMILES: O=C1CCCn2c3ccccc3c3ccnc1c32
- GI50 (SN12K1; Homo sapiens, SN12K1): 39.9 µM (inactive)
- GI50 (P388/ADR; Mus musculus, P388/ADR): 20 µM (inactive)
- GI50 (P388; Mus musculus, P388): 22.6 µM (inactive)

SMILES: OCCCNc1ncnc2c1ncn2[C@H]1CN(Cc2ccc(-c3ccccc3)cc2)C[C@@H](CO)O1
- IC50 [14]: 20.6 µM (inactive)

SMILES: C[C@H]1CN([C@@H](C)CO)C(=O)c2cc(NS(=O)(=O)c3ccccc3)ccc2O[C@@H]1CN(C)Cc1ccc(-c2ccccc2)cc1
- AC50 [5]: 6.29 µM (active)

SMILES: C[C@@H]1CN([C@@H](C)CO)C(=O)c2cccc(NC(=O)c3nc4ccccc4s3)c2O[C@H]1CN(C)Cc1ccc(C(=O)Nc2ccccc2N)cc1
- AC50 [5]: 2.09 µM (active)

SMILES: CCC1(CC)Cc2ccccc2C(N)=C1C#N
- CC50 [15]: > 40 µM (active)
- IC50 [4]: > 80 µM (inactive)

SMILES: Nc1cc2c(cc1[N+](=O)[O-])[nH]c1c(-c3ccccc3)nccc12
- GI50 (SN12K1; Homo sapiens, SN12K1): 20.7 µM (inactive)
- GI50 (P388/ADR; Mus musculus, P388/ADR): 17.7 µM (inactive)
- GI50 (P388; Mus musculus, P388): 17.2 µM (inactive)

SMILES: CN(C(=O)c1ccc(NC(=O)Cc2ccc(NC(=O)C3CCN(C(=O)C4CCCC4)CC3)cc2)cc1)C1CCCC1
- IC50 [14]: 12.6 µM (inactive)

SMILES: c1cc(N2CCCC2)ccc1C(c1nnnn1C1CCCCC1)N1CCOCC1 (configuration not stated)
- EC50 [6]: > 50 µM (active)

SMILES: N=C(NC(=O)c1ccccc1NC(=O)c1ccccc1)Nc1nc2ccccc2o1
- CC50 [15]: > 40 µM (active)

SMILES: Cc1nc(Nc2nc(O)cc(CSc3nc4ccccc4[nH]3)n2)nc2ccccc12
- AC50 [16]: 3.58 µM (active)
- AC50 [17]: 11.2 µM (active)
- AC50 [18]: 10.3 µM (active)
- AC50 [19]: 8.15 µM (active)
- AC50 [20]: 7.51 µM (active)
- AC50 [21]: 6.8 µM (active)

SMILES: Cn1sc2ccccc2c1=S
- GI50 (SN12K1; Homo sapiens, SN12K1): 2.79 µM (inactive)
- GI50 (P388/ADR; Mus musculus, P388/ADR): 0.441 µM (active)
- GI50 (P388; Mus musculus, P388): 0.294 µM (active)

SMILES: Cc1ccc(S(=O)(=O)N(C)C[C@@H]2Oc3cc(C#CC4CCCC4)ccc3S(=O)(=O)N([C@H](C)CO)C[C@H]2C)cc1
- AC50 [17]: 61.4 µM (active)
- AC50 [18]: 35.2 µM (active)
- AC50 [20]: 2.34 µM (active)

SMILES: Cc1ccc(C(=O)N2CCN3C(=O)c4ccccc4C23c2ccc(Cl)cc2)cc1 (configuration not stated)
- IC50 (Protein Wnt-3a): 10.3 µM (active)

SMILES: Cc1ncc(CCl)c2c1OC(C)(C)OC2
- CC50 [15]: > 40 µM (active)
